System: Giardia lamblia (WB strain) trophozoites
Test: Growth of Giardia lamblia trophozoites during 24 hr and 48 hr incubation in vitro (live and dead counts)
Assay type: cell-based
Conditions: for Reduction of live trophozoites compared to control cultures: 48 hr incubation, n=3
Experimental: Methods for Evaluating the Effect of Ganglioside Enriched Preparation and Ganglioside Fractions on Growth of Giardia lamblia Trophozoites in vitro. The following method was used for preparation of culture medium containing ganglioside. A preparation containing gangliosides was vortexed and sonicated (Sonic 300 Dismembrator™, Artek System Corp.) in 10 ml of TYI-S-33 culture medium, and further diluted by adding 990 ml of culture medium. This stock culture medium containing a known concentration of gangliosides was filtered in succession through Whatman™ No. 1 filter paper, 0.8 μm, 0.45 μm (Milli-Fil-P.F.™ Millipore Corp.), and 0.22 μm (Sterivex-GS™ filters with filling bell, Millipore Corp) filters connected to a peristaltic pump. This stock solution was kept at −30° C. and was diluted on the day of inoculation.
G. lamblia (WB strain) trophozoites were cultured in Diamond's TYI-S-33 (Diamond et al., 1978.). G. lamblia trophozoites (5×10^5) were inoculated in 12.5 cm^2 tissue culture flasks in the total volume of […]. Nutrient stock solution containing gangliosides was diluted to provide a concentration of ganglioside (as N-Acetyl neuraminic acid amounts, NANA) at 0 (control), 0.001, 0.01, 1, 2, and 4 μg/ml. The cultures were incubated for 24 and 48 hr at 37° C. in 5% CO2, and the number of live and dead (no flagellar movement) trophozoites determined using a hemocytometer.
The following method was used for preparation of culture medium containing ganglioside fraction. Total lipids were extracted from the ganglioside enriched preparation using the Folch method (Folch et al., 1957). The ganglioside containing upper phase was transferred and the lower phase was washed once with Folch upper phase solution (chloroform/methanol/water, 3/48/47 by vol.). The combined ganglioside containing fractions were passed through Sep-Pak™ C18 reverse-phase cartridges (Waters Corporation, Milford, Mass., USA), eluted with methanol and chloroform and methanol 2:1 (v/v), and dried completely under vacuum at 23° C. using a rotary evaporator (Williams et al., 1980). Ganglioside (NANA) content was measured as described by Suzuki (1964). Gangliosides were then diluted using the culture medium and filtered as described above.
G. lamblia trophozoites (5×10^5) were incubated for 24 hr and 48 hr with ganglioside fraction at the concentration of 0 (control), 4, 8, 10, 12, 14, 16 and 20 μg/ml in 12.5 cm^2 tissue culture flasks as described above.
In vitro. This study was performed to determine if Fraction A is directly toxic to the parasite. Several dilutions of Fraction A was added to the media at the concentration of 0, 0.001, 0.01, 0, 1, 1, 2, and 4 ug/ml and incubated for 24 hours and 48 hours after inoculation with 500,000 Giardia lamblia trophozoites. […]

II^(NeuAc)2-LacCer [GD3] was tested, and the “Reduction of live trophozoites compared to control cultures” value (10 μg/ml (NANA)) was 25%, the “Reduction of live trophozoites compared to control cultures” value (20 μg/ml (NANA)) was 55% and the “Live trophozoites as a percent of control versus concentration” value (48 hour incubation, in words (FIG. 12)) was “decrease as a percent of control in a dose-dependent manner”. The “Dead trophozoites as a percentage of live trophozoites versus concentration” value (48 hour incubation, in words (FIG. 13)) was “increase as a percentage of live trophozoites”.

Source: US6998392B2, “Formulation to treat or prevent parasitic infection” (MTI Meta Tech Inc., priority 2003, dated 2006)
